“Also recorded” adds a separate entry of the source.
How the values were obtained:
hepatocytes = assay: Hepatocyte predicted clearance (Hep Clpred), mouse; assay type: in vitro ADME; conditions: in vitro
[1] = Phase 2b study in plaque psoriasis (Example 4): safety

In the case of `CNc1cc(Nc2cccn(-c3ccccn3)c2=O)nc2c(C(=O)N[C@@H]3CC[C@H]3OC)cnn12` [Compound 1, N-((1R,2R)-2-methoxycyclobutyl)-7-(methylamino)-5-((2-oxo-2H-[1,2′-bipyridin]-3-yl)amino)pyrazolo[1,5-a]pyrimidine-3-carboxamide], the “Hep Clpred” value (hepatocytes) is reported as 3.24 L/h/kg, the “kind of adverse event leading to drug discontinuation” value (“kind of adverse event leading” for short) ([1]; 2 mg) is reported as “Lymphocyte count decreased (2 mg)” and the AEs ([1]; 2 mg QD) is reported as 31 (62) Number of patients (percent). The “AEs leading to discontinuation” value ([1]; 2 mg QD) was 1 (2) Number of patients (percent), the “ALT elevation, CTCAE Grade ≥3” value ([1]; 2 mg QD) was 0 Number of patients (percent) and the “AST elevation, CTCAE Grade ≥3” value ([1]; 2 mg QD) was 0 Number of patients (percent). The Acne ([1]; 2 mg QD) was 0 Number of patients (percent), the Acneiform dermatitis ([1]; 2 mg QD) was 0 Number of patients (percent) and the “Anemia, CTCAE Grade ≥3” value ([1]; 2 mg QD) was 0 Number of patients (percent). For the same molecule, the COVID-19 ([1]; 2 mg QD) was 6 (12) Number of patients (percent), the “CPK elevation, CTCAE Grade ≥3” value ([1]; 2 mg QD) was 0 Number of patients (percent) and the “Cholesterol elevation, Wk 12, CTCAE Grade ≥3” value (“Cholesterol elevation” for short) ([1]; 2 mg QD) was 0 Number of patients (percent). The “Creatinine elevation, CTCAE Grade ≥3” value ([1]; 2 mg QD) was 0 Number of patients (percent), the Deaths ([1]; 2 mg QD) was 0 Number of patients (percent) and the Diarrhea ([1]; 2 mg QD) was 3 (6) Number of patients (percent). For the same molecule, the “Lymphopenia, CTCAE Grade ≥3” value ([1]; 2 mg QD) was 1 (2) Number of patients (percent), the “Serious AEs” value ([1]; 2 mg QD) was 0 Number of patients (percent) and the “Thrombocytopenia, CTCAE Grade ≥3” value ([1]; 2 mg QD) was 0 Number of patients (percent). For the same molecule, the “Triglyceride elevation, Wk 12, CTCAE Grade ≥3” value ([1]; 2 mg QD) was 1 (2) Number of patients (percent), the “Worsening of proteinuria, CTCAE Grade ≥3” value ([1]; 2 mg QD) was 0 Number of patients (percent) and the “kind of adverse event leading” value ([1]; 5 mg) was “Tachycardia and syncope (5 mg)”. For the same molecule, the AEs ([1]; 5 mg QD) was 28 (54) Number of patients (percent), the “AEs leading to discontinuation” value ([1]; 5 mg QD) was 1 (2) Number of patients (percent) and the “ALT elevation, CTCAE Grade ≥3” value ([1]; 5 mg QD) was 0 Number of patients (percent). For the same molecule, the “AST elevation, CTCAE Grade ≥3” value ([1]; 5 mg QD) was 0 Number of patients (percent), the Acne ([1]; 5 mg QD) was 1 (2) Number of patients (percent) and the Acneiform dermatitis ([1]; 5 mg QD) was 1 (2) Number of patients (percent). The “Anemia, CTCAE Grade ≥3” value ([1]; 5 mg QD) was 0 Number of patients (percent), the COVID-19 ([1]; 5 mg QD) was 4 (8) Number of patients (percent) and the “CPK elevation, CTCAE Grade ≥3” value ([1]; 5 mg QD) was 0 Number of patients (percent). The “Cholesterol elevation” value ([1]; 5 mg QD) was 0 Number of patients (percent), the “Creatinine elevation, CTCAE Grade ≥3” value ([1]; 5 mg QD) was 0 Number of patients (percent) and the Deaths ([1]; 5 mg QD) was 0 Number of patients (percent). For the same molecule, the Diarrhea ([1]; 5 mg QD) was 1 (2) Number of patients (percent), the “Lymphopenia, CTCAE Grade ≥3” value ([1]; 5 mg QD) was 0 Number of patients (percent) and the “Serious AEs” value ([1]; 5 mg QD) was 0 Number of patients (percent). For the same molecule, the “Thrombocytopenia, CTCAE Grade ≥3” value ([1]; 5 mg QD) was 0 Number of patients (percent), the “Triglyceride elevation, Wk 12, CTCAE Grade ≥3” value ([1]; 5 mg QD) was 0 Number of patients (percent) and the “Worsening of proteinuria, CTCAE Grade ≥3” value ([1]; 5 mg QD) was 0 Number of patients (percent). The “kind of adverse event leading” value ([1]; 15 mg) was “Pericardial effusion and pleural effusion (15 mg)”, the AEs ([1]; 15 mg QD) was 28 (53) Number of patients (percent) and the “AEs leading to discontinuation” value ([1]; 15 mg QD) was 1 (2) Number of patients (percent). The “ALT elevation, CTCAE Grade ≥3” value ([1]; 15 mg QD) was 0 Number of patients (percent), the “AST elevation, CTCAE Grade ≥3” value ([1]; 15 mg QD) was 0 Number of patients (percent) and the Acne ([1]; 15 mg QD) was 3 (6) Number of patients (percent). For the same molecule, the Acneiform dermatitis ([1]; 15 mg QD) was 1 (2) Number of patients (percent), the “Anemia, CTCAE Grade ≥3” value ([1]; 15 mg QD) was 0 Number of patients (percent) and the COVID-19 ([1]; 15 mg QD) was 6 (11) Number of patients (percent). The “CPK elevation, CTCAE Grade ≥3” value ([1]; 15 mg QD) was 1 (2) Number of patients (percent), the “Cholesterol elevation” value ([1]; 15 mg QD) was 0 Number of patients (percent) and the “Creatinine elevation, CTCAE Grade ≥3” value ([1]; 15 mg QD) was 0 Number of patients (percent). For the same molecule, the Deaths ([1]; 15 mg QD) was 0 Number of patients (percent), the Diarrhea ([1]; 15 mg QD) was 1 (2) Number of patients (percent) and the “Lymphopenia, CTCAE Grade ≥3” value ([1]; 15 mg QD) was 0 Number of patients (percent). For the same molecule, the “Serious AEs” value ([1]; 15 mg QD) was 1 (2) Number of patients (percent), the “Thrombocytopenia, CTCAE Grade ≥3” value ([1]; 15 mg QD) was 0 Number of patients (percent) and the “Triglyceride elevation, Wk 12, CTCAE Grade ≥3” value ([1]; 15 mg QD) was 1 (2) Number of patients (percent). For the same molecule, the “Worsening of proteinuria, CTCAE Grade ≥3” value ([1]; 15 mg QD) was 0 Number of patients (percent), the “kind of adverse event leading” value ([1]; 30 mg) was “CPK increased (30 mg); also recorded: One additional subject (30 mg) permanently discontinued study drug due to an AE of hypertensive urgency, but remained in study” and the AEs ([1]; 30 mg QD) was 31 (60) Number of patients (percent). The “AEs leading to discontinuation” value ([1]; 30 mg QD) was 2 (4) Number of patients (percent), the “ALT elevation, CTCAE Grade ≥3” value ([1]; 30 mg QD) was 0 Number of patients (percent) and the “AST elevation, CTCAE Grade ≥3” value ([1]; 30 mg QD) was 0 Number of patients (percent). For the same molecule, the Acne ([1]; 30 mg QD) was 2 (4) Number of patients (percent), the Acneiform dermatitis ([1]; 30 mg QD) was 3 (6) Number of patients (percent) and the “Anemia, CTCAE Grade ≥3” value ([1]; 30 mg QD) was 0 Number of patients (percent). For the same molecule, the COVID-19 ([1]; 30 mg QD) was 7 (14) Number of patients (percent), the “CPK elevation, CTCAE Grade ≥3” value ([1]; 30 mg QD) was 1 (2) Number of patients (percent) and the “Cholesterol elevation” value ([1]; 30 mg QD) was 0 Number of patients (percent). For the same molecule, the “Creatinine elevation, CTCAE Grade ≥3” value ([1]; 30 mg QD) was 0 Number of patients (percent), the Deaths ([1]; 30 mg QD) was 0 Number of patients (percent) and the Diarrhea ([1]; 30 mg QD) was 0 Number of patients (percent). For the same molecule, the “Lymphopenia, CTCAE Grade ≥3” value ([1]; 30 mg QD) was 0 Number of patients (percent), the “Serious AEs” value ([1]; 30 mg QD) was 0 Number of patients (percent) and the “Thrombocytopenia, CTCAE Grade ≥3” value ([1]; 30 mg QD) was 0 Number of patients (percent). The “Triglyceride elevation, Wk 12, CTCAE Grade ≥3” value ([1]; 30 mg QD) was 1 (2) Number of patients (percent), the “Worsening of proteinuria, CTCAE Grade ≥3” value ([1]; 30 mg QD) was 0 Number of patients (percent) and the CPK ([1]; FIG. 17E) was “shows some variability at 15 mg and 30 mg with large error bars”. For the same molecule, the Triglyceride elevation ([1]; FIG. 19B) was “minimal”, the “hematological parameters, mean lab values and changes from baseline” value ([1]; FIGS. 17A-17E, weeks 0-16) was “do not reveal adverse trends in cell counts” and the “hepatic and renal parameters, mean lab values and changes from baseline” value ([1]; FIGS. 18A-18E) was “do not reveal adverse trends for liver enzymes, creatinine or eGFR”. For the same molecule, the “lipid parameters, mean lab values and changes from baseline” value ([1]; FIGS. 19A-19E) was “do not reveal adverse trends for cholesterol, HDL, or LDL”.
